Data published in patent US4459290A, “C-23-Modified derivatives of OMT, pharmaceutical compositions and method of use” (priority 1982, dated 1984).
≈ marks a conversion by molar mass, not a printed value. Where two headings read alike, the source gives them in different places.

How the values were obtained:
[1] = test system: Klebsiella pneumoniae X26; assay: MIC, standard agar-dilution assay (Table V); type: cell-based; conditions: Klebsiella pneumoniae, X26
Description: (§1) Especially noteworthy is the improved activity against gram-negative bacteria for several derivatives when compared to the activity of OMT. […] The MIC's in Tables V and VI were determined by standard agar-dilution assays. The MIC's in Table VII were obtained using a conventional broth-dilution microtiter test.

[2] = test system: Staphylococcus aureus X400; assay: MIC, standard agar-dilution assay (Table V); type: cell-based; conditions: Staphylococcus aureus
Description: as §1

[3] = test system: Haemophilus influenzae Holt; assay: MIC, standard agar-dilution assay (Table V); type: cell-based; conditions: Haemophilus influenzae
Description: (§2) The MIC's in Tables V and VI were determined by standard agar-dilution assays. The MIC's in Table VII were obtained using a conventional broth-dilution microtiter test.

[4] = test system: Haemophilus influenzae R252; assay: MIC, standard agar-dilution assay (Table V); type: cell-based; conditions: Haemophilus influenzae; H. influenzae R252, ampicillin-resistant strain; agar dilution; read-out: MIC
Description: as §2

[5] = test system: Streptococcus pyogenes C203; assay: MIC, standard agar-dilution assay (Table V); type: cell-based; conditions: Streptococcus pyogenes
Description: as §2

[6] = test system: Citrobacter freundii CF17; assay: MIC, standard agar-dilution assay (Table VI); type: cell-based
Description: as §1

[7] = test system: Enterobacter aerogenes C32; assay: MIC, standard agar-dilution assay (Table VI); type: cell-based; conditions: Klebsiella aerogenes
Description: as §1

[8] = test system: Enterobacter aerogenes EB17; assay: MIC, standard agar-dilution assay (Table VI); type: cell-based; conditions: Klebsiella aerogenes
Description: as §1

Enterobacter cloacae EB5 = assay: MIC, standard agar-dilution assay (Table VI); type: cell-based; conditions: E. cloacae EB5, agar dilution, read-out: MIC
Description: as §1

[9] = test system: Klebsiella pneumoniae X68; assay: MIC, standard agar-dilution assay (Table VI); type: cell-based
Description: as §1

Proteus inconstans PR33 = assay: MIC, standard agar-dilution assay (Table VI); type: cell-based; conditions: Providencia alcalifaciens
Description: as §1

Proteus morganii PR15 = assay: MIC, standard agar-dilution assay (Table VI); type: cell-based; conditions: Morganella morganii
Description: as §1

Proteus rettgeri C24 = assay: MIC, standard agar-dilution assay (Table VI); type: cell-based; conditions: Providencia rettgeri, P. rettgeri C24
Description: as §1

Proteus rettgeri PR7 = assay: MIC, standard agar-dilution assay (Table VI); type: cell-based; conditions: Providencia rettgeri; P. rettgeri PR7; agar dilution; read-out: MIC
Description: as §1

[10] = test system: Pseudomonas aeruginosa Ps18; assay: MIC, standard agar-dilution assay (Table VI); type: cell-based; conditions: P. aeruginosa Ps18, agar dilution, read-out: MIC
Description: as §1

[11] = test system: Pseudomonas aeruginosa X239; assay: MIC, standard agar-dilution assay (Table VI); type: cell-based; conditions: P. aeruginosa X239, agar dilution, read-out: MIC
Description: as §1

[12] = test system: Pseudomonas aeruginosa X528; assay: MIC, standard agar-dilution assay (Table VI); type: cell-based; conditions: X528
Description: as §1

[13] = test system: Salmonella heidelberg X514; assay: MIC, standard agar-dilution assay (Table VI); type: cell-based; conditions: Salmonella enterica
Description: as §1

Salmonella typhi 1335 = assay: MIC, standard agar-dilution assay (Table VI); type: cell-based; conditions: Salmonella enterica
Description: as §1

Serratia marcescens SE3 = assay: MIC, standard agar-dilution assay (Table VI); type: cell-based; conditions: S. marcescens SE3, agar dilution, read-out: MIC
Description: as §1

Serratia marcescens X99 = assay: MIC, standard agar-dilution assay (Table VI); type: cell-based; conditions: S. marcescens X99, agar dilution, read-out: MIC
Description: as §1

Mycoplasma gallisepticum = assay: MIC, broth-dilution microtiter test (Table VII); type: cell-based; conditions: Mycoplasmoides gallisepticum; M. gallisepticum; broth-dilution microtiter; read-out: MIC
Description: as §1

Mycoplasma hyorhinis = assay: MIC, broth-dilution microtiter test (Table VII); type: cell-based; conditions: M. hyorhinis; broth-dilution microtiter; read-out: MIC
Description: as §1

Mycoplasma synoviae = assay: MIC, broth-dilution microtiter test (Table VII); type: cell-based; conditions: Mycoplasmopsis synoviae; M. synoviae; broth-dilution microtiter; read-out: MIC
Description: as §1

[14] = test system: Pasteurella hemolytica 22C; assay: MIC, broth-dilution microtiter test (Table VII); type: cell-based; conditions: Pasteurella, P. hemolytica 22C, read-out: MIC
Method in brief: (§3)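 Broth microdilution, run as a conventional microtiter test, supplied MICs for the gram-positive S. aureus and the Pasteurella isolates. Enterobacter data instead rest on a standard agar-dilution procedure.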

[15] = test system: Pasteurella hemolytica 23C; assay: MIC, broth-dilution microtiter test (Table VII); type: cell-based; conditions: Pasteurella, P. hemolytica 23C, read-out: MIC
Method in brief: as §3

[16] = test system: Pasteurella hemolytica 41D; assay: MIC, broth-dilution microtiter test (Table VII); type: cell-based; conditions: Pasteurella, P. hemolytica 41D, read-out: MIC
Method in brief: as §3

[17] = test system: Pasteurella multocida 17E; assay: MIC, broth-dilution microtiter test (Table VII); type: cell-based; conditions: Pasteurella multocida; P. multocida 17E, bovine isolate; broth-dilution microtiter; read-out: MIC
Method in brief: (§4)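 Serial compound dilutions were incorporated into agar for testing E. aerogenes. Dilutions in broth, arranged in microtiter wells, were used for S. aureus and P. multocida.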

[18] = test system: Pasteurella multocida 22A; assay: MIC, broth-dilution microtiter test (Table VII); type: cell-based; conditions: Pasteurella multocida
Method in brief: as §4

[19] = test system: Pasteurella multocida 40G; assay: MIC, broth-dilution microtiter test (Table VII); type: cell-based; conditions: Pasteurella multocida
Method in brief: as §4

[20] = test system: Pasteurella multocida 60A; assay: MIC, broth-dilution microtiter test (Table VII); type: cell-based; conditions: Pasteurella multocida; P. multocida 60A, avian isolate; broth-dilution microtiter; read-out: MIC
Method in brief: as §4

[21] = test system: Pasteurella multocida 68C; assay: MIC, broth-dilution microtiter test (Table VII); type: cell-based; conditions: Pasteurella multocida; P. multocida 68C; broth-dilution microtiter; read-out: MIC
Method in brief: as §4

Staphylococcus aureus = assay: MIC, broth-dilution microtiter test (Table VII); type: cell-based; conditions: Staphylococcus aureus; S. aureus; broth-dilution microtiter; read-out: MIC
Method in brief: as §4

Streptococcus sp. 80 = assay: MIC, broth-dilution microtiter test (Table VII); type: cell-based; conditions: Streptococcus sp. 80; broth-dilution microtiter; read-out: MIC
Description: as §1

[22] = test system: Streptococcus pyogenes C203; assay: ED50 in mice experimentally infected with S. pyogenes C203 (Table VIII); type: in vivo
Description: The C-23 modified derivatives of OMT of this invention have shown in vivo antimicrobial activity against experimental infections. When two doses of test compound were administered to mice experimentally infected with a gram-positive bacterium, S. pyogenes C203, the activity observed was measured as an ED50 value [effective dose in mg/kg to protect 50% of the test animals: see Warren Wick, et al., J. Bacteriol. 81, 233-235 (1961)].

[23] = C203, sc, mice, subcutaneous, doses given 1 and 4 hours postinfection, read-out: ED50, Subcutaneous

Row | SMILES | MIC [1] | MIC [4] | MIC (Enterobacter cloacae EB5) | MIC (Proteus rettgeri C24) | MIC (Proteus rettgeri PR7) | MIC [10] | MIC [11] | MIC [12] | MIC (Salmonella typhi 1335) | MIC (Serratia marcescens SE3) | MIC (Serratia marcescens X99) | MIC (Mycoplasma gallisepticum) | MIC (Mycoplasma hyorhinis) | MIC (Mycoplasma synoviae) | MIC [14] | MIC [15] | MIC [16] | MIC [17] | MIC [20] | MIC [21] | further results
1 | CCC1OC(=O)CC(O)C(C)C(OC2OC(C)C(O)C(N(C)C)C2O)C(CC=O)CC(C)C(=O)C=CC(C)=CC1CSc1ccccc1 (stereo not drawn) [Compound 2, 23-Deoxy-23-(phenyl)thio-OMT] | 2 µg/mL (≈ 2.9 µM) | 1 µg/mL (≈ 1.45 µM) | 64 µg/mL (≈ 92.8 µM) | 16 µg/mL (≈ 23.2 µM) | 16 µg/mL (≈ 23.2 µM) | 64 µg/mL (≈ 92.8 µM) | 64 µg/mL (≈ 92.8 µM) | 16 µg/mL (≈ 23.2 µM) | 64 µg/mL (≈ 92.8 µM) | 64 µg/mL (≈ 92.8 µM) | 64 µg/mL (≈ 92.8 µM) | 0.09 µg/mL (≈ 0.13 µM) | 12.5 µg/mL (≈ 18.1 µM) | 0.39 µg/mL (≈ 0.565 µM) | 3.12 µg/mL (≈ 4.52 µM) | 3.12 µg/mL (≈ 4.52 µM) | 1.56 µg/mL (≈ 2.26 µM) | 1.56 µg/mL (≈ 2.26 µM) | 1.56 µg/mL (≈ 2.26 µM) | 1.56 µg/mL (≈ 2.26 µM) | MIC ([2]; S. aureus X400, methicillin-resistant strain, agar dilution, read-out: MIC): 0.125 µg/mL (≈ 0.181 µM); MIC ([3]; H. influenzae Holt, ampicillin-sensitive strain, agar dilution, read-out: MIC): 1 µg/mL (≈ 1.45 µM); MIC ([5]; S. pyogenes C203, agar dilution, read-out: MIC): 0.015 µg/mL (≈ 0.0217 µM); MIC ([6]; CF17): 32 µg/mL (≈ 46.4 µM); MIC ([7]; C32): 32 µg/mL (≈ 46.4 µM); MIC ([8]; EB17): 32 µg/mL (≈ 46.4 µM); MIC ([9]; X68): 32 µg/mL (≈ 46.4 µM); MIC (Proteus inconstans PR33; PR33): 32 µg/mL (≈ 46.4 µM); MIC (Proteus morganii PR15; P. morganii PR15, agar dilution, read-out: MIC): 8 µg/mL (≈ 11.6 µM); MIC ([13]; X514): 64 µg/mL (≈ 92.8 µM); MIC ([18]; P. multocida 22A, broth-dilution microtiter, read-out: MIC): 1.56 µg/mL (≈ 2.26 µM); MIC ([19]; 40G): 0.78 µg/mL (≈ 1.13 µM); MIC (Staphylococcus aureus): 0.39 µg/mL (≈ 0.565 µM); MIC (Streptococcus sp. 80): 0.09 µg/mL (≈ 0.13 µM); ED50 ([22]; C203, po, read-out: ED50, Oral): > 100 mg/kg; ED50 [22, 23]: 25.7 mg/kg
2 | CCC1OC(=O)CC(O)C(C)C(OC2OC(C)C(O)C(N(C)C)C2O)C(CC=O)CC(C)C(=O)C=CC(C)=CC1CSc1nnc(C)s1 (stereo not drawn) [Compound 3, 23-Deoxy-23-(5-methyl-1,3,4-thiadiazol-2-yl)thio-OMT] | 4 µg/mL (≈ 5.62 µM) | 2 µg/mL (≈ 2.81 µM) | > 128 µg/mL | 64 µg/mL (≈ 89.9 µM) | 64 µg/mL (≈ 89.9 µM) | > 128 µg/mL | > 128 µg/mL | 64 µg/mL (≈ 89.9 µM) | > 128 µg/mL | > 128 µg/mL | > 128 µg/mL | 0.19 µg/mL (≈ 0.267 µM) | 6.25 µg/mL (≈ 8.78 µM) | 0.39 µg/mL (≈ 0.548 µM) | 12.5 µg/mL (≈ 17.6 µM) | 6.25 µg/mL (≈ 8.78 µM) | 6.25 µg/mL (≈ 8.78 µM) | 6.25 µg/mL (≈ 8.78 µM) | 6.25 µg/mL (≈ 8.78 µM) | 6.25 µg/mL (≈ 8.78 µM) | MIC ([2]; X400): 0.25 µg/mL (≈ 0.351 µM); MIC [3]: 2 µg/mL (≈ 2.81 µM); MIC ([5]; C203): 0.125 µg/mL (≈ 0.176 µM); MIC ([6]; C. freundii CF17, agar dilution, read-out: MIC): > 128 µg/mL; MIC ([7]; E. aerogenes C32, agar dilution, read-out: MIC): > 128 µg/mL; MIC ([8]; E. aerogenes EB17, agar dilution, read-out: MIC): > 128 µg/mL; MIC ([9]; K. pneumoniae X68, agar dilution, read-out: MIC): > 128 µg/mL; MIC (Proteus inconstans PR33; P. inconstans PR33, agar dilution, read-out: MIC): > 128 µg/mL; MIC (Proteus morganii PR15; PR15): 64 µg/mL (≈ 89.9 µM); MIC ([13]; S. heidelberg X514, agar dilution, read-out: MIC): > 128 µg/mL; MIC ([18]; 22A): 3.12 µg/mL (≈ 4.38 µM); MIC ([19]; P. multocida 40G, broth-dilution microtiter, read-out: MIC): 1.56 µg/mL (≈ 2.19 µM); MIC (Staphylococcus aureus): 0.78 µg/mL (≈ 1.1 µM); MIC (Streptococcus sp. 80): 0.39 µg/mL (≈ 0.548 µM); ED50 ([22]; C203, mice, oral, doses given 1 and 4 hours postinfection, read-out: ED50, Oral): 81 mg/kg; ED50 [22, 23]: 22.3 mg/kg
